Measured values taken from patent US8802162B2, “L-citrulline for treating endothelial dysfunction and erectile dysfunction” (Androsystems S.R.L., priority 2008, dated 2014).

Experiments:
[1] = Blood L-arginine/ADMA ratio, randomized prospective study in erectile dysfunction patients; assay type: in vivo
Method: (§1) The effectiveness of the administration of L-citrulline in the treatment of erectile dysfunction has been verified by conducting a randomized prospective study on 20 patients, during which L-citrulline was administered orally with a dosage of 6 grams/day, in two separate 3-gram doses, to patients affected by erectile dysfunction.
(§2) The effects of the administration were then tested at the biochemical level by studying the following parameters:
(§3) The data related to the above cited biochemical parameters were acquired for patients subjected to the test 7 days after the beginning of the administration of the drug and are shown below in Table 1, Table 2, Table 3 and Table 4.

[2] = Urinary excretion of nitrates, randomized prospective study in erectile dysfunction patients; assay type: in vivo; settings: for Urinary excretion of nitrates, baseline: before administration; for Urinary excretion of nitrates, after administration: oral, L-citrulline 6 grams/day or L-arginine 3 grams/day, 7 days after beginning of administration
Method: as §1, §2
3. urinary excretion of nitrates;
as §3

[3] = Plasma levels of L-arginine after oral administration, randomized prospective study in erectile dysfunction patients; assay type: in vivo; settings: in words
Method: as §1, §2, §3

[4] = Urinary excretion of cGMP, randomized prospective study in erectile dysfunction patients; assay type: in vivo; settings: for Urinary excretion of cGMP, baseline: before administration; for Urinary excretion of cGMP, after administration: oral, L-citrulline 6 grams/day or L-arginine 3 grams/day, 7 days after beginning of administration
Method: as §1, §2
4. urinary excretion of cGMP.
as §3

erectile dysfunction = assay: Erectile function assessment card (IIF-5 questionnaire); assay type: in vivo, patients; settings: oral 6 grams/day, in words
Method: as §1
(§4) Moreover, the effects at the clinical level were also tested by administering the “Erectile function assessment card” (IIF-5 questionnaire) to the patients and by measuring flow-mediated vasodilation of the cavernous arteries before and after therapy.

cavernous arteries = assay: Flow-mediated vasodilation of the cavernous arteries before and after therapy; assay type: in vivo, patients; settings: oral 6 grams/day, before vs after therapy, in words
Method: as §1, §4

Row | Compound | L-arginine/ADMA ratio, baseline ([1]; baseline, before administration) | L-arginine/ADMA ratio, after administration ([1]; oral, L-citrulline 6 grams/day or L-arginine 3 grams/day, 7 days after beginning of administration) | Urinary excretion of nitrates, baseline [2] | Excretion of nitrates with respect to administration of L-arginine ([2]; oral administration, in words) | Urinary excretion of nitrates, after administration [2] | Plasma half-life of L-arginine with respect to administration of L-arginine [3] | Plasma levels of arginine with respect to administration of L-arginine [3] | Urinary excretion of cGMP, baseline [4] | Excretion of cGMP with respect to administration of L-arginine ([4]; oral administration, in words) | Urinary excretion of cGMP, after administration [4] | IIF-5 questionnaire, components related to achieving and maintaining erection (erectile dysfunction) | Increase in flow-mediated vasodilation at the level of the cavernous arteries (cavernous arteries)
1 | NC(=O)NCCC[C@H](N)C(=O)O [L-citrulline] | 183 ± 8 | 290 ± 15 | 89 ± 9 nmol/mmol creatinine | higher excretion | 133 ± 16 nmol/mmol creatinine | statistically longer | statistically higher | 40 ± 2.8 nmol/mmol creatinine | higher excretion | 55 ± 3.8 nmol/mmol creatinine | leads to a modification of the IIF-5 questionnaire | statistically higher increase
2 | N=C(N)NCCC[C@H](N)C(=O)O [L-arginine, reference compound] |  |  | 91 ± 10 nmol/mmol creatinine |  | 93 ± 12 nmol/mmol creatinine |  |  | 38 ± 3.1 nmol/mmol creatinine |  | 39 ± 4.5 nmol/mmol creatinine |  | 
